Experimental data as given in patent US20080293749A1, “Pyrrolidine(thi)ones Substituted by Heterocyclic Substituents in The 3-Position” (Gruenenthal GmbH, priority 2005, published 2008).
≈ marks a conversion by molar mass, not a printed value.

Tests used:
[1] = test system: IL-12 production of LPS-activated monocytes; assay: Inhibition of IL-12 production of LPS-activated human monocytes (sandwich ELISA of culture supernatants); assay type: cell-based; settings: human CD14-positive monocytes, 1 h preincubation with test substance, 10 μg/ml LPS from E. coli, 24 hours; for IC50: Monocyte
Description: (§1) Stimulation of human monocytes with lipopolysaccharide for secretion of IL-10 and IL-12:
(§2) Human monocytes were isolated from peripheral blood mononuclear cells (PBMC), which were obtained from heparinized whole blood by means of a Ficoll density gradient centrifugation. For this, the PBMC were incubated with a monoclonal antibody which is directed against the monocyte-specific surface molecule CD14 and to which superparamagnetic microbeads (Miltenyi Biotech, Bergisch Gladbach) are coupled. For positive selection of the labelled monocytes from the cell mixture of the PBMC, the entire cell suspension was applied to a column with a ferromagnetic carrier matrix and this was placed in a magnetic field. The cells loaded with microbeads were thereby bound to the carrier matrix, and non-labelled cells passed through the column and were discarded. After removing the matrix from the magnetic field, the antibody-laden cells were eluted by rinsing the now demagnetized column with buffer. The purity of this CD14-positive monocyte population obtained in this way is about 95-98%. These monocytes were incubated in a density of 10^6 cells/ml of culture medium (RPMI, supplemented with 10% foetal calf serum) with the test substances, dissolved in DMSO, at 37° C. and 5% CO2 for one hour. 10 μg/ml of LPS from E. coli were then added. After 24 hours, cell-free culture supernatants were taken and tested for the content of IL-10 and IL-12.
(§3) The concentration of IL-12 and IL-10 in the cell culture supernatants was determined by means of sandwich ELISAs using two anti-IL-12 and, respectively, IL-10 monoclonal antibodies (Biosource Europe, Fleurus, Belgium). A reference standard curve with human IL-10 and, respectively, IL-12 was included. The detection limit of the ELISAs was 15 pg/ml.

[2] = test system: IL-10 production of LPS-activated monocytes; assay: Increase in IL-10 production of LPS-activated human monocytes (sandwich ELISA of culture supernatants); assay type: cell-based; settings: human CD14-positive monocytes, 1 h preincubation with test substance, 10 μg/ml LPS from E. coli, 24 hours; for EC200: Monocyte
Description: as §1, §2, §3

| melting point | Compound | other results |
| --- | --- | --- |
| 154 to 160 °C | CCCCCOc1cccc2c1CN(C1CC(=O)NC1=O)C=N2 (stereo not drawn) [Example 12c, 3-(5-pentyloxy-4H-quinazolin-3-yl)-pyrrolidine-2,5-dione] | – |
| 100 to 108 °C | O=C1CC(N2C=Nc3cccc(OCc4ccccc4)c3C2)C(=O)N1 (stereo not drawn) [Example 12d, 3-(5-benzyloxy-4H-quinazolin-3-yl)-pyrrolidine-2,5-dione] | – |
| 191 to 192 °C | CC(C)Oc1cccc2c1CN(C1CC(=O)NC1=O)C=N2 (stereo not drawn) [Example 12e, 3-(5-isopropoxy-4H-quinazolin-3-yl)-pyrrolidine-2,5-dione] | – |
| 288 to 290 °C | COCCOc1cccc2c1CN(C1CC(=O)NC1=O)C=N2 (stereo not drawn) [Example 12f, 3-(5-(2-methoxyethoxy)-4H-quinazolin-3-yl)-pyrrolidine-2,5-dione] | – |
| 205 to 206 °C | CC1=Nc2cc(C(F)(F)F)ccc2CN1C1CC(=O)NC1=O (stereo not drawn) [Example 15aa, 3-(2-methyl-7-trifluoromethyl-4H-quinazolin-3-yl)-pyrrolidine-2,5-dione] | – |
| 161 to 166 °C | CC1=Nc2ccc(Cl)c(Cl)c2CN1C1CC(=O)NC1=O (stereo not drawn) [Example 15c, 3-(5,6-dichloro-2-methyl-4H-quinazolin-3-yl)-pyrrolidine-2,5-dione] | – |
| 199 to 201 °C | CC1=Nc2cc(Cl)cc(Cl)c2CN1C1CC(=O)NC1=O (stereo not drawn) [Example 15d, 3-(5,7-dichloro-2-methyl-4H-quinazolin-3-yl)-pyrrolidine-2,5-dione] | – |
| 203 to 210 °C | CC1=Nc2cc([N+](=O)[O-])ccc2CN1C1CC(=O)NC1=O (stereo not drawn) [Example 15ee, 3-(2-methyl-7-nitro-4H-quinazolin-3-yl)-pyrrolidine-2,5-dione] | – |
| 186 to 191 °C | CC1=Nc2c(Cl)ccc(Cl)c2CN1C1CC(=O)NC1=O (stereo not drawn) [Example 15f, 3-(5,8-dichloro-2-methyl-4H-quinazolin-3-yl)-pyrrolidine-2,5-dione] | – |
| 145 to 150 °C | CC1=Nc2c(Br)cc(C)cc2CN1C1CC(=O)NC1=O (stereo not drawn) [Example 15ff, 3-(8-bromo-2,6-dimethyl-4H-quinazolin-3-yl)-pyrrolidine-2,5-dione] | – |
| 176 to 178 °C | CC1=Nc2c(Cl)cccc2CN1C1CC(=O)NC1=O (stereo not drawn) [Example 15hh, 3-(8-chloro-2-methyl-4H-quinazolin-3-yl)-pyrrolidine-2,5-dione] | – |
| 130 to 133 °C | CCOc1cccc2c1CN(C1CC(=O)NC1=O)C(C)=N2 (stereo not drawn) [Example 15k, 3-(5-ethoxy-2-methyl-4H-quinazolin-3-yl)-pyrrolidine-2,5-dione] | – |
| 116 to 119 °C | CC1=Nc2cccc(OC(C)C)c2CN1C1CC(=O)NC1=O (stereo not drawn) [Example 15m, 3-(5-isopropoxy-2-methyl-4H-quinazolin-3-yl)-pyrrolidine-2,5-dione] | – |
| 200 to 201 °C | CC1=Nc2cccc(C)c2CN1C1CC(=O)NC1=O (stereo not drawn) [Example 15n, 3-(2,5-dimethyl-4H-quinazolin-3-yl)-pyrrolidine-2,5-dione] | – |
| 122 °C | COc1cccc2c1CN(C1CC(=O)NC1=O)C(C)=N2 (stereo not drawn) [Example 15o, 3-(5-methoxy-2-methyl-4H-quinazolin-3-yl)-pyrrolidine-2,5-dione] | – |
| > 260 °C (dec.) | CC1=Nc2cccc([N+](=O)[O-])c2CN1C1CC(=O)NC1=O (stereo not drawn) [Example 15p, 3-(2-methyl-5-nitro-4H-quinazolin-3-yl)-pyrrolidine-2,5-dione] | – |
| 154 to 156 °C | CCCCCOc1cccc2c1CN(C1CC(=O)NC1=O)C(C)=N2 (stereo not drawn) [Example 15q, 3-(2-methyl-5-pentyloxy-4H-quinazolin-3-yl)-pyrrolidine-2,5-dione] | – |
| 106 to 110 °C | CC1=Nc2cc3ccccc3cc2CN1C1CC(=O)NC1=O (stereo not drawn) [Example 15t, 3-(2-methyl-4H-benzo[g]quinazolin-3-yl)-pyrrolidine-2,5-dione] | – |
| 200 to 202 °C | COc1cc2c(cc1OC)N=C(C)N(C1CC(=O)NC1=O)C2 (stereo not drawn) [Example 15v, 3-(6,7-dimethoxy-2-methyl-4H-quinazolin-3-yl)-pyrrolidine-2,5-dione] | – |
| 180 to 182 °C | CC1=Nc2c(Cl)cc(Cl)cc2CN1C1CC(=O)NC1=O (stereo not drawn) [Example 15w, 3-(6,8-dichloro-2-methyl-4H-quinazolin-3-yl)-pyrrolidine-2,5-dione] | – |
| 132 to 143 °C | CC1=Nc2ccc(OCc3ccccc3)cc2CN1C1CC(=O)NC1=O (stereo not drawn) [Example 15x, 3-(6-benzyloxy-2-methyl-4H-quinazolin-3-yl)-pyrrolidine-2,5-dione] | – |
| 195 to 203 °C | CC1=Nc2ccc(Cl)cc2CN1C1CC(=O)NC1=O (stereo not drawn) [Example 15y, 3-(6-chloro-2-methyl-4H-quinazolin-3-yl)-pyrrolidine-2,5-dione] | – |
| 170 to 175 °C | CC1=Nc2ccc([N+](=O)[O-])cc2CN1C1CC(=O)NC1=O (stereo not drawn) [Example 15z, 3-(2-methyl-6-nitro-4H-quinazolin-3-yl)-pyrrolidine-2,5-dione] | – |

More lines, now with the values behind:

| Compound | melting point | other results |
| --- | --- | --- |
| O=C1CC(N2C=Nc3cc(F)cc(Cl)c3C2)C(=O)N1 (stereo not drawn) [Example 1, 3-(5-chloro-7-fluoro-4H-quinazolin-3-yl)-pyrrolidine-2,5-dione] | – | IC50 [1]: 1.5 µg/mL (≈ 5.33 µM); EC200 [2]: 4 µg/mL |
| O=C1CC(N2C=Nc3cc(Cl)cc(F)c3C2)C(=O)N1 (stereo not drawn) [Example 2, 3-(7-chloro-5-fluoro-4H-quinazolin-3-yl)-pyrrolidine-2,5-dione] | – | IC50 [1]: 1.4 µg/mL (≈ 4.97 µM); EC200 [2]: 1 µg/mL |
| O=C1CC(N2C=Nc3cc(F)cc(F)c3C2)C(=O)N1 (stereo not drawn) [Example 4, 3-(5,7-difluoro-4H-quinazolin-3-yl)-pyrrolidine-2,5-dione] | – | IC50 [1]: 0.107 µg/mL (≈ 0.403 µM); EC200 [2]: 0.62 µg/mL |
| O=C1CC(N2C=Nc3cc4ccccc4cc3C2)C(=O)N1 (stereo not drawn) [Example 8c, 3-(4H-benzo[q]quinazolin-3-yl)-pyrrolidine-2,5-dione] | – | Inhibition of IL-12 production IC50 [1]: 4 µg/mL; Increase in IL-10 production EC200 [2]: >50000 ng/mL |
| O=C1CC(N2C=Nc3cc(F)c(F)cc3C2)C(=O)N1 (stereo not drawn) [Example 8d, 3-(6,7-difluoro-4H-quinazolin-3-yl)-pyrrolidine-2,5-dione] | – | IC50 [1]: 0.715 µg/mL (≈ 2.7 µM); EC200 [2]: > 50 µg/mL |
| O=C1CC(N2C=Nc3c(Cl)cc(Cl)cc3C2)C(=O)N1 (stereo not drawn) [Example 8e, 3-(6,8-dichloro-4H-quinazolin-3-yl)-pyrrolidine-2,5-dione] | 230 to 232 °C | – |
| O=C1CC(N2C=Nc3ccc([N+](=O)[O-])cc3C2)C(=O)N1 (stereo not drawn) [Example 8f, 3-(6-nitro-4H-quinazolin-3-yl)-pyrrolidine-2,5-dione] | 168 to 172 °C | – |
| O=C1CC(N2C=Nc3cc([N+](=O)[O-])ccc3C2)C(=O)N1 (stereo not drawn) [Example 8h, 3-(7-nitro-4H-quinazolin-3-yl)-pyrrolidine-2,5-dione] | 212 to 225 °C | – |
| Cc1cc(Br)c2c(c1)CN(C1CC(=O)NC1=O)C=N2 (stereo not drawn) [Example 8i, 3-(8-bromo-6-methyl-4H-quinazolin-3-yl)-pyrrolidine-2,5-dione] | 240 to 241 °C | – |
| O=C1CC(N2C=Nc3c(Cl)cccc3C2)C(=O)N1 (stereo not drawn) [Example 8j, 3-(8-chloro-4H-quinazolin-3-yl)-pyrrolidine-2,5-dione] | 194 °C | – |
| COc1cccc2c1N=CN(C1CC(=O)NC1=O)C2 (stereo not drawn) [Example 8k, 3-(8-methoxy-4H-quinazolin-3-yl)-pyrrolidine-2,5-dione] | 195 to 200 °C | – |
| O=C1CC(N2C=Nc3ccc(OCc4ccccc4)cc3C2)C(=O)N1 (stereo not drawn) [Example 8l, 3-(6-benzyloxy-4H-quinazolin-3-yl)-pyrrolidine-2,5-dione] | 171 to 173 °C | – |
| O=C1CC(N2C=Nc3ccc(Cl)c(Cl)c3C2)C(=O)N1 (stereo not drawn) [Example 9a, 3-(5,6-dichloro-4H-quinazolin-3-yl)-pyrrolidine-2,5-dione] | 174 to 178 °C | – |
| COc1cc2c(cc1OC)N=CN(C1CC(=O)NC1=O)C2 (stereo not drawn) [Example 10b, 3-(6,7-dimethoxy-4H-quinazolin-3-yl)-pyrrolidine-2,5-dione] | 189 to 200 °C | – |
| O=C1CC(N2C=Nc3c(cccc3C(F)(F)F)C2)C(=O)N1 (stereo not drawn) [Example 11c, 3-(8-trifluoromethyl-4H-quinazolin-3-yl)-pyrrolidine-2,5-dione] | 188 to 190 °C | – |
| CN1C(=O)CC(N2C=Nc3ccccc3C2)C1=O (stereo not drawn) [Example 11d, 1-methyl-3-(4H-quinazolin-3-yl)-pyrrolidine-2,5-dione] | 163 to 164 °C | – |
| CN1C(=O)CC(N2C=Nc3cc(F)ccc3C2)C1=O (stereo not drawn) [Example 11e, 7-fluoro-1-methyl-3-(4H-quinazolin-3-yl)-pyrrolidine-2,5-dione] | 191 to 193 °C | – |
| COc1cccc2c1CN(C1CC(=O)NC1=O)C=N2 (stereo not drawn) [Example 12a, 3-(5-methoxy-4H-quinazolin-3-yl)-pyrrolidine-2,5-dione] | – | IC50 [1]: 1.8 µg/mL (≈ 6.94 µM); EC200 [2]: > 50 µg/mL |
| CCOc1cccc2c1CN(C1CC(=O)NC1=O)C=N2 (stereo not drawn) [Example 12b, 3-(5-ethoxy-4H-quinazolin-3-yl)-pyrrolidine-2,5-dione] | 203 to 205 °C | – |
